Patent US20220162552A1, “Nonviral Modification of T Cell Gene Expression” (Precision NanoSystems Inc., priority 2019, published 2022)

What was measured:
Assay type in all cases: cell-based
[1] = system: primary human T cells (live CD4+/CD8+ T cells); assay: eGFP mRNA LNP transfection of activated T cells on day 7, 2 μg mRNA per 500,000 cells, flow cytometry after 48 h; conditions: for MFI results by ionizable lipid: MC3 versus BOCHD-C3-DMA; for activity of the lipid mix composition to transfect T cells by ionizable lipid (FIG. 10 upper): same ratios and materials, ionizable lipid varied
Protocol: All reagents from StemCell Technologies unless otherwise stated. T cells were isolated from whole human peripheral blood using a negative selection isolation procedure (EasySep™ Human T Cell Isolation Kit). T cell activation and expansion was carried out using Immunocult™ Human CD3/CD28/CD2 Activator in ImmunoCult™ Human T Cell Expansion Media supplemented with recombinant human IL-2 (Peprotech Inc., Rocky Hill USA). T cells typically enter a logarithmic phase of growth 48-96 hours after activation, which phase is characterized by a period of rapid proliferation and metabolic activity for 24-72 hours followed by a plateau in the growth curve as the cells start to return to a quiescent state. As depicted in FIG. 1, T cells may be exposed to lipid nucleic acid before or during the log phase of growth (day 3), or after the log phase of growth (day 7).
We tested the compositions of new Lipid Mixes against standard Lipid Mix A (all with BOCHD-C3-DMA as IL unless otherwise stated) using the triple T cell activation protocol (Pan T cells were activated with trio activator comprising anti-CD3/CD28/CD2 antibody) in LNP-mediated mRNA delivery and expression in vitro.
LNP formulated EGFP mRNA (Trilink Biotechnologies, San Diego, Calif.) was added to 500,000 T cells in 1 mL of complete T cell media, with 1 μg/mL of Recombinant Human ApoE4 (“ApoE”) (Peprotech Inc.).
The volume of LNAP required to achieve the desired dose of mRNA was calculated based on the concentration of encapsulated mRNA as determined by modified Ribogreen™ assay. T cells were counted through Trypan blue (Sigma) exclusion and diluted to 500,000 cells/mL. Briefly, in a 12 well plate, 1 mL was aliquoted into each well. ApoE was added to a final concentration of 1 ug/mL in each well. Based upon the calculation in step 1, the required amount of mRNA LNP was added, in this case 2 μg, and the plate incubated for 48 hours.
Different lipid mix compositions were tested for their ability to induce transfection as measured by geometric mean fluorescence intensity of GFP expressed in T cells (as measured by flow cytometry).
Three isolations of T cells were taken from a single donor and divided into three groups: Pan T cells (all T cells), CD4+ T cells alone, and CD8+ T cells alone. At 48H following lipid particle mRNA exposure, the treated T cells were harvested by transferring the cell suspensions to pre-labeled 1.5 mL tubes and centrifuged 300×g at 4 degrees Celsius for 10 minutes. Supernatant was removed and the pellet resuspended in PBS. An amount of 0.5 ul of BD Horizon™ Fixable Viability Stain 575V™ (BD Biosciences) was added, and the mixture incubated in the dark for 10 minutes at RT. The cells were centrifuged again as before, then washed twice with 1 mL of Stain buffer (BSA, BD Pharminigen), and the washed pellet placed in 100 μl BSA. The following antibodies were added to each tube of treated cells in 2 μl volumes: anit-CD25, anti-CD8, anti-CD4, (PerCP-Cy 5.5 Mouse Anti Human CD25, BV786 Mouse Anti-Human CD8 Clone RPA-T8, and APC-Cy™ 7 Mouse Anti-Human CD4 Clone SK3, all from BD Pharmingen). For compensation purposes, in the GFP only sample and viability control, no antibody was added, while in the single stain compensation tubes, only one antibody was added.
The tubes were incubated at 4 degrees C. for 30 min, whereupon […] of stain buffer (BSA) was added, and the cells were centrifuged again. Cells were washed once with 1 mL of stain buffer and spun down again as in step 1. Cell pellets were resuspended in 1 mL of stain buffer and added to pre-labeled flow tubes with cell strainer caps (Corning Falcon).
Histogram Analysis of T Cell Populations was generated as follows: Flow cytometry was performed on the live primary human T cells. […] All LNP compositions contained BOCHD-C3-DMA as ionizable lipid (IL). […]

[2] = system: isolated primary human T cells; assay: eGFP mRNA LNP transfection of T cells, 125,000 cells per well format (day 3/4/7), flow cytometry; conditions: CT10 composition, six donors, day 7
Protocol: Isolation of primary T cells from human whole blood and activation/expansion was performed as in general procedures above. Isolated T cells were exposed to the formulated mRNA three days after activation; in the T cell growth curve, this time point corresponds to just before or at the log phase of growth. A dose of 125 ng of CleanCap™ EGFP (Trilink Biotechnologies, San Diego, Calif.) mRNA encapsulated in LNP (see details below) was added to about 125,000 T cells in 0.25 mL of complete T cell media, with 1 ug/mL of Recombinant Human ApoE4 (“ApoE”) (Peprotech Inc., Montreal, Canada).
The volume of LNP required for T cell treatment was calculated based upon Ribogreen™ assay results. T cells were counted through Trypan blue (Sigma) exclusion and diluted to 500,000 cells/mL. […]
Lipid mix compositions were tested for their ability to induce transfection, using flow cytometry to measure the geometric mean fluorescence intensity of eGFP. Shown in FIG. 11 A(i) to D(ii) are the transfection efficiencies (i) and mean fluorescence intensities (ii) of mRNA LNPs encoding eGFP in isolated primary human T cells under various conditions. […]
GFP expression in isolated primary human T cells mediated by mRNA-LNPs containing BOCHD-C3-DMA with CT10 composition at N/P 8 is shown in FIG. 16. Transfection efficiency, viability and GFP MFI measured by flow cytometry 48 hours after LNP addition. […]

primary human T cells = assay: EPO mRNA LNP delivery to T cells, Human Epo ELISA; conditions: CT10 LNPs, 48 h
Protocol: Reagents were acquired from Quantikine, Minneapolis, Minn. The assay was performed as directed on the Quantikine® IVD® ELISA Human Erythropoietin Immunoassay protocol REF DEP00 Package Insert. Briefly; primary human T cells were isolated from fresh whole blood using a negative selection protocol and activated using a triple activator. At 7 days post-activation, the cells were treated with mRNA LNPs encoding EPO at 2 μg mRNA per 500,000 cells and N/P 10. After 48 hours of treatment with mRNA LNPs, the T cells were harvested and lysed for cytosolic EPO and media supernatant was sampled for secreted EPO. Quantikine® Human Serum Controls were used.
Frozen human T cells, previously isolated from fresh human whole blood using a negative selection protocol, were thawed and activated using a triple activator as previously described. At seven days post-activation, T cells were dosed with CT10 formulated mRNA LNPs encoding recombinant human erythropoietin (EPO) determined by ELISA (R&D Systems) at 2 μg mRNA per 500,000 cells and N/P 10. After 48 hours of treatment with mRNA LNPs the T cells were harvested and lysed for cytosolic EPO and media supernatant was sampled for secreted EPO.

Compound | MFI results by ionizable lipid [1] | activity of the lipid mix composition to transfect T cells by ionizable lipid (FIG. 10 upper) [1] | donor to donor variability by ionizable lipid (FIG. 15) [2] | level of secreted EPO by ionizable lipid (primary human T cells) | T cell transfection by structural lipid (FIG. 8) ([1]; Lipid Mix CT22 ratios, structural lipid DOPE or DSPC, N/P 10)
CCCCCCCCC1CC1CCCCCCCCC(CCCCCCCCC1CC1CCCCCCCC)OC(=O)CCCN(C)C.Cl (stereo not drawn) [BOCHD-C3-DMA, 1,17-bis(2-octylcyclopropyl)heptadecan-9-yl 4-(dimethylamino) butanoate hydrochloride] | comparable | without affecting the activity of the lipid mix composition to transfect T cells | no substantial difference | higher level of secreted EPO than MC3 LNPs | –
CCCCCCCCCCCCCCCCCC(=O)OC[C@H](COP(=O)([O-])OCC[N+](C)(C)C)OC(=O)CCCCCCCCCCCCCCCCC [DSPC, distearoylphosphatidylcholine] | – | – | – | – | better than DOPE
CCCCC/C=C\C/C=C\CCCCCCCCC1(CCCCCCCC/C=C\C/C=C\CCCCC)OCC(CCN(C)C)O1 (stereo not drawn) [KC2, 2,2-dilinoleyl-4-(2-dimethylaminoethyl)-[1,3]-dioxolane, reference compound] | – | without affecting the activity of the lipid mix composition to transfect T cells | – | – | –
CCCCCC=CCC=CCCCCCCCCC(CCCCCCCCC=CCC=CCCCCC)OC(=O)CCCN(C)C (stereo not drawn) [MC3, heptatriaconta-6,9,28,31-tetraen-19-yl 4-(dimethylamino)butanoate, reference compound] | comparable | without affecting the activity of the lipid mix composition to transfect T cells | no substantial difference | – | –
